Earlier results in publication PMC3014826 (The Biochemical journal, 2009).

Test system: A6 TCR
Details: ITC, 37 °C; ref Armstrong et al. (2008)

## HTLV-1 Tax11-19 peptide [Native Tax]
  ΔG°: -8.59 ± 0.04 kcal/mol
  ΔH°: -7.1 ± 0.1 kcal/mol
  ΔS°: 4.7 ± 0.4 cal/mol/K
